According to ChEMBL document CHEMBL1201862, “PubChem BioAssay data set” (2004):
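All cell lines were grown in 96-well plates and treated with compound for 48 hours. GI50 is the concentration that inhibits growth by half.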 Calls of active or inactive are those of the source. No stated cut-off is given here; in the data, active = GI50 up to about 1.1 µM and inactive = higher. Numbered stars: 1 amine (or outer) side, 2 acyl side, 3 side chain; on linkers, the order of the positions; unused ones are H or OH. Bridge positions count the residues as written; N and C are the ends. Square brackets hold non-standard residues; d marks the D form. Peptide text beside a SMILES is read from it. I, II: the chains in the order shown. Actinocin(9to1) = Cc1c2oc3c(C)ccc(C(=O)[*:1])c3nc-2c(C(=O)[*:2])c(N)c1=O; NMeH = CN[CH](Cc1c[nH]cn1)C(=O)O; Sar = CNCC(=O)O

What was measured:
Assay in all cases: growth of human tumour cells (NCI), 48 h
SK-OV-3 = test system: SK-OV-3
CCRF-CEM = test system: CCRF-CEM
SK-MEL-5 = test system: SK-MEL-5
MCF7 = test system: MCF7
M14 = test system: M14
IGROV-1 = test system: IGROV-1
RPMI-8226 = test system: RPMI-8226
OVCAR-5 = test system: OVCAR-5
Malme-3M = test system: Malme-3M
LOX IMVI = test system: LOX IMVI
SF-295 = test system: SF-295
SW-620 = test system: SW-620
A498 = test system: A498
HL-60 = test system: HL-60
HOP-92 = test system: HOP-92
OVCAR-8 = test system: OVCAR-8
U-251 = test system: U-251
NCI-H226 = test system: NCI-H226
HCT-116 = test system: HCT-116
DU-145 = test system: DU-145

Measured: GI50

Cc1c2oc3c(C)ccc(C(=O)NC4C(=O)NC(C(C)C)C(=O)N5CCCC5C(=O)N(C)CC(=O)N(C)C(Cc5cnc[nH]5)C(=O)OC4C)c3nc-2c(C(=O)NC2C(=O)NC(C(C)C)C(=O)N3CCCC3C(=O)N(C)CC(=O)N(C)C(Cc3cnc[nH]3)C(=O)OC2C)c(N)c1=O (stereo not drawn) (I: TVP[Sar][NMeH] / II: TVP[Sar][NMeH]; ester I:1-I:C, II:1-II:C; linker I:N-II:N via Actinocin(9to1); configuration not given here)
inactive: SK-OV-3 69.3 µM | CCRF-CEM 59 µM | SK-MEL-5 16.9 µM | MCF7 30.4 µM | M14 68.5 µM | IGROV-1 47.3 µM | RPMI-8226 31.6 µM | OVCAR-5 > 100 µM | Malme-3M 55.7 µM | LOX IMVI 20.2 µM | SF-295 45.6 µM | SW-620 27.4 µM | A498 > 10 µM | HL-60 63.7 µM | HOP-92 40.6 µM | OVCAR-8 > 100 µM | U-251 57.1 µM | NCI-H226 56.2 µM

Nc1ccc2c(c1)C(=O)N(OS(=O)(=O)c1ccccc1)C2=O
inactive: SK-OV-3 > 100 µM | CCRF-CEM 76.6 µM | SK-MEL-5 > 100 µM | M14 > 100 µM | IGROV-1 > 100 µM | OVCAR-5 > 100 µM | Malme-3M 94.4 µM | LOX IMVI 35.5 µM | SF-295 > 100 µM | SW-620 49.8 µM | A498 > 100 µM | HL-60 46.5 µM | HOP-92 > 100 µM | OVCAR-8 56.9 µM | U-251 > 100 µM | NCI-H226 > 100 µM | HCT-116 > 100 µM

Nc1ccc(O)c2c1C(=O)c1c(N)ccc(O)c1C2=O
inactive: SK-OV-3 > 100 µM | CCRF-CEM > 100 µM | SK-MEL-5 > 100 µM | M14 > 100 µM | IGROV-1 > 100 µM | RPMI-8226 > 100 µM | OVCAR-5 > 100 µM | Malme-3M > 100 µM | LOX IMVI > 100 µM | SF-295 > 100 µM | SW-620 > 100 µM | A498 > 100 µM | HL-60 > 100 µM | HOP-92 > 100 µM | OVCAR-8 > 100 µM | U-251 > 100 µM | HCT-116 > 100 µM

CC1CC(=O)C(CC(=O)O)[C@H]1C(C(=O)C(=O)Nc1cc(Cl)ccc1Cl)[N+](=O)[O-] (stereo partly drawn)
inactive: SK-OV-3 > 100 µM | CCRF-CEM > 100 µM | SK-MEL-5 > 100 µM | IGROV-1 > 100 µM | RPMI-8226 > 100 µM | OVCAR-5 > 100 µM | LOX IMVI > 100 µM | SF-295 > 100 µM | SW-620 > 100 µM | A498 > 100 µM | HL-60 > 100 µM | HOP-92 > 100 µM | OVCAR-8 > 100 µM | U-251 > 100 µM | NCI-H226 > 100 µM

O=C(/C=C/c1c(O)ccc2ccccc12)c1cccc(O)c1
inactive: SK-OV-3 > 100 µM | CCRF-CEM 30.1 µM | SK-MEL-5 50.4 µM | M14 > 100 µM | IGROV-1 > 100 µM | RPMI-8226 64.3 µM | OVCAR-5 > 100 µM | Malme-3M 59.8 µM | LOX IMVI 41.8 µM | SF-295 > 100 µM | SW-620 > 100 µM | A498 > 100 µM | HL-60 20.7 µM | HOP-92 > 62.8 µM | OVCAR-8 > 100 µM | U-251 > 91.6 µM | NCI-H226 > 100 µM | HCT-116 > 100 µM

Cc1ccc(NC(=O)CC/C(CC(=O)c2ccc(F)cc2)=N\NC(=O)C(=O)NN)cc1C
inactive: SK-OV-3 > 100 µM | CCRF-CEM > 100 µM | SK-MEL-5 > 100 µM | M14 > 100 µM | IGROV-1 > 100 µM | OVCAR-5 > 100 µM | Malme-3M > 100 µM | LOX IMVI > 100 µM | SF-295 > 100 µM | SW-620 > 100 µM | A498 > 100 µM | HL-60 41.5 µM | HOP-92 > 100 µM | OVCAR-8 > 100 µM | U-251 > 100 µM | NCI-H226 > 100 µM | HCT-116 > 100 µM

O=C(NC(Cc1ccccc1)(Cc1ccc(O)cn1)C(=O)O)c1ccccc1 (stereo not drawn)
inactive: SK-OV-3 > 100 µM | CCRF-CEM 25.4 µM | SK-MEL-5 > 100 µM | M14 > 100 µM | IGROV-1 > 100 µM | RPMI-8226 49.3 µM | OVCAR-5 > 100 µM | Malme-3M > 100 µM | DU-145 > 100 µM | LOX IMVI > 100 µM | SF-295 92 µM | SW-620 > 100 µM | HL-60 16.5 µM | HOP-92 33.8 µM | OVCAR-8 > 100 µM | U-251 > 100 µM | NCI-H226 83 µM | HCT-116 58.9 µM

COC(=O)C1CC(C(=O)OC)c2nc3cc(C)c(C)cc3nc21 (stereo not drawn)
inactive: SK-OV-3 > 100 µM | CCRF-CEM > 100 µM | SK-MEL-5 > 100 µM | M14 > 100 µM | IGROV-1 > 100 µM | RPMI-8226 > 100 µM | OVCAR-5 > 100 µM | Malme-3M > 100 µM | LOX IMVI > 100 µM | SF-295 > 100 µM | SW-620 > 100 µM | A498 > 100 µM | HL-60 > 100 µM | HOP-92 > 100 µM | OVCAR-8 > 100 µM | U-251 > 100 µM | NCI-H226 > 100 µM

C[N+](C)(C)CC1CCCC/C1=N\O (stereo not drawn)
inactive: SK-OV-3 > 100 µM | CCRF-CEM > 100 µM | M14 > 100 µM | IGROV-1 > 100 µM | RPMI-8226 > 100 µM | OVCAR-5 > 100 µM | Malme-3M > 100 µM | LOX IMVI > 100 µM | SF-295 > 100 µM | SW-620 > 100 µM | A498 > 100 µM | HL-60 > 100 µM | HOP-92 > 100 µM | OVCAR-8 > 100 µM | U-251 > 100 µM | HCT-116 > 100 µM

O=c1[nH]c2ccccc2c2oc(-c3ccccc3)nc12
inactive: SK-OV-3 37.2 µM | CCRF-CEM 18.4 µM | SK-MEL-5 30.5 µM | MCF7 44.8 µM | M14 > 100 µM | IGROV-1 > 100 µM | RPMI-8226 27.9 µM | OVCAR-5 > 100 µM | Malme-3M > 100 µM | LOX IMVI 21.3 µM | SF-295 23.9 µM | SW-620 22.9 µM | A498 27 µM | HOP-92 28.5 µM | OVCAR-8 22.4 µM | U-251 24.7 µM | NCI-H226 88.9 µM | HCT-116 24 µM

O=CC[C@H]1C(=O)C[C@@H]2CCC[C@@H]21
inactive: SK-OV-3 > 100 µM | CCRF-CEM 34.1 µM | SK-MEL-5 33.5 µM | M14 68.2 µM | IGROV-1 > 100 µM | RPMI-8226 42.4 µM | OVCAR-5 > 100 µM | Malme-3M > 100 µM | SF-295 > 100 µM | SW-620 46.9 µM | A498 > 100 µM | HL-60 32.1 µM | HOP-92 57.3 µM | OVCAR-8 43.1 µM | U-251 98.6 µM | NCI-H226 80.4 µM | HCT-116 37.2 µM
